How the values were obtained:
[1] = for mass density / kinematic viscosity: 101.33 kPa, Liquid; for mass density: Vibrating tube method; for surface tension liquid-gas / kinematic viscosity: Surface laser light scattering (SLLS)
[2] = refractive index (Na D-line) (dimensionless); conditions: 101.33 kPa, Liquid, Standard Abbe refractometry

CCCCCCCC(=O)OCC [ethyl octanoate]
Conditions	kinematic viscosity [m2/s]	mass density [kg/m3]	refractive index	surface tension liquid-gas [mN/m]
[1], 293.15 K	–	866.99	–	–
[1], 298.15 K	1.52e-06	–	–	25.38
[1], 303.15 K	–	858.27	–	–
[1], 313.15 K	–	849.55	–	–
[1], 323.14 K	1.15e-06	–	–	23.34
[1], 323.15 K	–	839.92	–	–
[1], 333.15 K	–	832	–	–
[1], 343.15 K	–	823.46	–	–
[1], 348.17 K	8.92e-07	–	–	21.5
[1], 353.15 K	–	814.74	–	–
[1], 363.15 K	–	805.97	–	–
[1], 373.15 K	–	797.16	–	–
[1], 373.19 K	6.88e-07	–	–	19.5
[1], 383.15 K	–	788.08	–	–
[1], 393.15 K	–	779.34	–	–
[1], 398.2 K	5.45e-07	–	–	17.44
[1], 403.15 K	–	770.31	–	–
[1], 413.15 K	–	761.18	–	–
[1], 423.15 K	–	751.94	–	–
[1], 423.18 K	4.53e-07	–	–	15.36
[1], 433.15 K	–	742.64	–	–
[1], 443.15 K	–	733.17	–	–
[1], 448.17 K	3.86e-07	–	–	13.16
[1], 453.15 K	–	723.58	–	–
[2], 278.15 K	–	–	1.42461	–
[2], 283.15 K	–	–	1.42242	–
[2], 288.15 K	–	–	1.42025	–
[2], 293.15 K	–	–	1.41807	–
[2], 298.15 K	–	–	1.41587	–
[2], 303.15 K	–	–	1.41367	–
[2], 308.15 K	–	–	1.41148	–
[2], 313.15 K	–	–	1.40926	–
[2], 318.15 K	–	–	1.40703	–
[2], 323.15 K	–	–	1.40481	–
[2], 328.15 K	–	–	1.40261	–
[2], 333.15 K	–	–	1.40042	–
[2], 338.15 K	–	–	1.39823	–
[2], 343.15 K	–	–	1.39603	–
[2], 348.15 K	–	–	1.39386	–
[2], 353.15 K	–	–	1.3917	–
[2], 358.15 K	–	–	1.38955	–

CCCCCCCCCCCCCC(=O)OCC [ethyl tetradecanoate]
Conditions	kinematic viscosity [m2/s]	mass density [kg/m3]	refractive index	surface tension liquid-gas [mN/m]
[1], 293.15 K	–	860.8	–	–
[1], 303.15 K	–	853.07	–	–
[1], 313.15 K	–	845.46	–	–
[1], 323.14 K	2.63e-06	–	–	24.08
[1], 323.15 K	–	837.86	–	–
[1], 333.15 K	–	830.3	–	–
[1], 343.15 K	–	822.77	–	–
[1], 348.16 K	1.9e-06	–	–	22.25
[1], 353.15 K	–	815.26	–	–
[1], 363.15 K	–	807.75	–	–
[1], 373.15 K	–	799.27	–	–
[1], 373.22 K	1.43e-06	–	–	20.56
[1], 383.15 K	–	792.77	–	–
[1], 393.15 K	–	785.27	–	–
[1], 398.24 K	1.12e-06	–	–	19.48
[1], 403.15 K	–	777.75	–	–
[1], 413.15 K	–	770.21	–	–
[1], 423.15 K	–	762.65	–	–
[1], 423.26 K	8.97e-07	–	–	18.15
[1], 433.15 K	–	755.04	–	–
[1], 443.15 K	–	747.42	–	–
[1], 448.28 K	7.25e-07	–	–	16.53
[1], 453.15 K	–	739.78	–	–
[2], 288.15 K	–	–	1.43841	–
[2], 293.15 K	–	–	1.43636	–
[2], 298.15 K	–	–	1.43432	–
[2], 303.15 K	–	–	1.4323	–
[2], 308.15 K	–	–	1.43026	–
[2], 313.15 K	–	–	1.4282	–
[2], 318.15 K	–	–	1.42613	–
[2], 323.15 K	–	–	1.42407	–
[2], 328.15 K	–	–	1.42205	–
[2], 333.15 K	–	–	1.42004	–
[2], 338.15 K	–	–	1.41803	–
[2], 343.15 K	–	–	1.41603	–
[2], 348.15 K	–	–	1.41406	–
[2], 353.15 K	–	–	1.41208	–
[2], 358.15 K	–	–	1.4101	–

CCCCCCCCCC(=O)OC [methyl decanoate]
Conditions	kinematic viscosity [m2/s]	mass density [kg/m3]	refractive index	surface tension liquid-gas [mN/m]
[1], 293.15 K	–	872.34	–	–
[1], 298.14 K	2.09e-06	–	–	24.73
[1], 303.15 K	–	864.01	–	–
[1], 313.15 K	–	855.73	–	–
[1], 323.15 K	–	847.47	–	–
[1], 323.16 K	1.48e-06	–	–	23.28
[1], 333.15 K	–	839.2	–	–
[1], 343.15 K	–	830.94	–	–
[1], 348.16 K	1.13e-06	–	–	21.96
[1], 353.15 K	–	822.61	–	–
[1], 363.15 K	–	814.38	–	–
[1], 373.15 K	–	806.06	–	–
[1], 373.17 K	8.74e-07	–	–	20.49
[1], 383.15 K	–	797.7	–	–
[1], 393.15 K	–	789.29	–	–
[1], 398.08 K	6.87e-07	–	–	18.81
[1], 403.15 K	–	780.82	–	–
[1], 413.15 K	–	771.74	–	–
[1], 422.99 K	5.61e-07	–	–	16.83
[1], 423.15 K	–	763.71	–	–
[1], 433.15 K	–	755	–	–
[1], 443.15 K	–	746.3	–	–
[1], 447.95 K	4.52e-07	–	–	14.87
[1], 453.15 K	–	737.39	–	–
[2], 278.15 K	–	–	1.43209	–
[2], 283.15 K	–	–	1.42995	–
[2], 288.15 K	–	–	1.42783	–
[2], 293.15 K	–	–	1.42571	–
[2], 298.15 K	–	–	1.42359	–
[2], 303.15 K	–	–	1.42148	–
[2], 308.15 K	–	–	1.41938	–
[2], 313.15 K	–	–	1.41726	–
[2], 318.15 K	–	–	1.4151	–
[2], 323.15 K	–	–	1.41295	–
[2], 328.15 K	–	–	1.41083	–
[2], 333.15 K	–	–	1.40871	–
[2], 338.15 K	–	–	1.40659	–
[2], 343.15 K	–	–	1.40448	–
[2], 348.15 K	–	–	1.40237	–
[2], 353.15 K	–	–	1.40028	–
[2], 358.15 K	–	–	1.39819	–
